In patent US20250186405A1, “Compound For Use In Treating Narcolepsy” (Alkermes, Inc., priority 2023, published 2025):
Several values for one entry are separate records, joined by “and”; a condition that tells them apart may be missing. Equal entries are not always repeated. Where two headings read alike, the source gives them in different places.

Assays:
[1] = Part 2 MAD: plasma pharmacokinetics, once daily for 10 days; format: in vivo, human; conditions: for Cmax / AUC(0-t) / concentration at 8 h / Tmax / half-life / Vd/F: oral; for AUC(0-t): read-out: AUC0-24, ss; for concentration at 8 h: read-out: C8 (concentration at 8-hour postdose); for Vd/F: read-out: Vz/F
Description: Part 2 of the study is a MAD evaluation in healthy subjects consisting of 4 cohorts: Cohorts 1-4 received powder-in-capsule or matching placebo. Dose levels were as follows:
Blood samples (up to 5 mL per sample) were collected for PK analysis of Compound A and its metabolite(s). The actual time of sample collection was recorded. The PK samples of the subjects randomized to placebo treatment were not analyzed. Any remaining plasma PK samples were used to explore the presence of any additional metabolites and/or biomarkers.
Plasma and urine concentrations of Compound A and its metabolite(s) were measured using a validated high-performance liquid chromatography with tandem mass spectrometry.
The plasma PK parameters of Compound A and its metabolite(s) were determined from the plasma concentration-time profiles for all evaluable subjects. Actual sampling times, rather than scheduled sampling times, were used in all computations involving sampling times. The below lower limit of quantitation concentrations were set to zero prior to PK parameter estimation.
The PK population was used for summaries of plasma and urine Compound A and its metabolite(s) concentrations and for analyses, summaries, and listing of PK parameters. Accumulation ratio (Day 10/Day 1) for Cmax and AUC0-24 was estimated with 90% CIs using a linear fixed effects model on log-transformed parameters. Dose effect was assessed using a linear fixed effects model on log-transformed t1/2. Dose proportionality was assessed using a power model on Cmax and AUC0-24 on Day 1 and Day 10 separately. Within-subject and total standard deviations for log-transformed Cmax and AUC0-24 were estimated within a linear mixed effects framework.

[2] = system: subjects with idiopathic hypersomnia (IH); experiment: Part 6 IH: Maintenance of Wakefulness Test (MWT) sleep latency; format: in vivo, human; conditions: for LS mean difference vs placebo in change from baseline, average MWT sleep latency: 2-8 hours post-dose; for Change from Day −1 in Average Sleep Latency on the MWT, LSM / Change from Day −1 in Average Sleep Latency on the MWT, LSM difference vs placebo: N = 8; for Average Sleep Latency on the MWT, Change from Day −1, Mean (SD) / Average Sleep Latency on the MWT, Change from Day −1, Median / Average Sleep Latency on the MWT, Dosing Day, Mean (SD) / Average Sleep Latency on the MWT, Dosing Day, Median: n = 8
Description: The Treatment Visit (Visit 2) began on Day −2, when each subject's eligibility criteria were reviewed, and eligible subjects were admitted to the clinic. Screening assessments and eligibility criteria review continued after admission until Day 1, prior to randomization and dosing. On Day −1, approximately 25 hours prior to study drug administration (on Day 1), baseline assessments for Maintenance of Wakefulness Test (MWT) began and were collected in a series of trials over approximately 10 hours.
At specified time points (Parts 5 and 6), MWT assessments were performed and took up to 40 minutes to complete. During the MWT trials, subjects were seated in a bed or reclining chair in a darkened room with their back and head supported such that their neck is not uncomfortably flexed or extended. Subjects were instructed to sit still and remain awake for as long as possible during each 40-minute trial. If the subject fell asleep during a trial, they were awakened, and the trial was terminated. […] Upon completion of the trial, the subject returned to a normal environment/ambiance and remained awake (and were awakened if they fall asleep) until the next trial.
Once Parts 5 and 6 were completed, the EEG data recorded during the MWT, as well as the technician notes, were transferred to the EEG vendor for further analysis. Technician notes were also maintained for transfer to Sponsor at the end of the study. A precise assessment of sleep latency was conducted by an experienced sleep scorer from the EEG vendor, and spectral analysis was performed on the EEG data recorded during MWT to assess absolute and relative powers in standard frequency bands (i.e., qEEG). All raw data and analysis results were transferred to the Sponsor.
For the changes from baseline in average sleep latency across the first 4 sessions of the MWT, descriptive statistics were provided by dose level. Mixed model with repeated measure (MMRM) for the 4-period crossover design were conducted with the change from baseline as a dependent variable, and the dose level and the period as fixed factors. The differences in the least square means between each Compound A dose level and the placebo (each Compound A dose level—the placebo), and the 2-sided CIs were provided.
Evaluation of Compound A effects on average sleep latency across 4 timepoints of MWT (2-, 4-, 6-, and 8-hours post-dose) has been conducted at each of the crossover periods (Days 1, 3, 5 and 7), testing placebo, and active dose levels of 5, 12, and 25 mg in the patients with IH compared to placebo. At pre-dose baseline on Day −1, MWT assessment was taken at similar times (2-, 4-, 6-, and 8-hours) as planned on dosing days assuming a dosing time of approximately 9 AM. Mean (SD) of baseline MWT average across the 4 time points on Day −1 was 22.61 (9.294), with high variability observed for IH subjects.

[3] = human, plasma, 3 mg, Day 1, geometric mean
[4] = human, plasma, 3 mg, Day 10, geometric mean
[5] = human, plasma, 8 mg, Day 1, geometric mean
[6] = human, plasma, 8 mg, Day 10, geometric mean
[7] = human, plasma, 15 mg, Day 1, geometric mean
[8] = human, plasma, 15 mg, Day 10, geometric mean
[9] = human, plasma, 25 mg, Day 1, geometric mean
[10] = human, plasma, 25 mg, Day 10, geometric mean

With `CS(=O)(=O)N[C@H]1CCCN2C(=O)COc3ccccc3C3CCC(CC3)OCC12` (stereo partly drawn) [Compound A, N-[(4S,4aR,7α,10α)-1,2,3,4,4a,5,7,8,9,10,16,17-dodecahydro-17-oxo-7,10-ethanopyrido[1,2-d][1,7,4]benzodioxaazacyclotridecin-4-yl]methanesulfonamide] the Accumulation ratio (Day 10/Day 1) AUC0-24 ([1]; 3 mg) was 1.36, the Accumulation ratio (Day 10/Day 1) Cmax ([1]; 3 mg) was 1.68 and the CL/F ([1]; 3 mg, Day 10, geometric mean) was 62.0 L/h. The Ctrough ([1]; 3 mg, Day 10, geometric mean) was 0.495 ng/mL, the Accumulation ratio (Day 10/Day 1) AUC0-24 ([1]; 8 mg) was 1.36 and the Accumulation ratio (Day 10/Day 1) Cmax ([1]; 8 mg) was 1.38. For the same compound, the CL/F ([1]; 8 mg, Day 10, geometric mean) was 55.7 L/h, the Ctrough ([1]; 8 mg, Day 10, geometric mean) was 2.07 ng/mL and the Accumulation ratio (Day 10/Day 1) AUC0-24 ([1]; 15 mg) was 1.23. For the same compound, the Accumulation ratio (Day 10/Day 1) Cmax ([1]; 15 mg) was 1.15, the CL/F ([1]; 15 mg, Day 10, geometric mean) was 84.4 L/h and the Ctrough ([1]; 15 mg, Day 10, geometric mean) was 2.06 ng/mL. The Accumulation ratio (Day 10/Day 1) AUC0-24 ([1]; 25 mg) was 1.02, the Accumulation ratio (Day 10/Day 1) Cmax ([1]; 25 mg) was 1.32 and the CL/F ([1]; 25 mg, Day 10, geometric mean) was 108 L/h. The Ctrough ([1]; 25 mg, Day 10, geometric mean) was 4.51 ng/mL, the Cmax [1, 3] was 5.6 ng/mL and the AUC(0-t) [1, 3] was 35.5 ng·h/mL. The concentration at 8 h [1, 3] was 1.21 ng/mL, the Tmax ([1]; human, plasma, 3 mg, Day 1, median, read-out: Tmax) was 1.75 h and the Cmax [1, 4] was 9.38 ng/mL. It also gave a half-life [1, 4] of 9.63 h, an AUC(0-t) [1, 4] of 48.4 ng·h/mL and a concentration at 8 h [1, 4] of 1.39 ng/mL. The Tmax ([1]; human, plasma, 3 mg, Day 10, median, read-out: Tmax) was 1.5 h, the Cmax [1, 5] was 16 ng/mL and the AUC(0-t) [1, 5] was 104 ng·h/mL. The concentration at 8 h [1, 5] was 3.89 ng/mL, the Tmax ([1]; human, plasma, 8 mg, Day 1, median, read-out: Tmax) was 1.75 h and the Cmax [1, 6] was 22.1 ng/mL. The half-life [1, 6] was 7.66 h, the AUC(0-t) [1, 6] was 141 ng·h/mL and the concentration at 8 h [1, 6] was 4.6 ng/mL. It also gave a Tmax ([1]; human, plasma, 8 mg, Day 10, median, read-out: Tmax) of 1.75 h, a Cmax [1, 7] of 25.2 ng/mL and a concentration at 8 h [1, 7] of 3.41 ng/mL. For the same compound, the Tmax ([1]; human, plasma, 15 mg, Day 1, median, read-out: Tmax) was 1.5 h, the Cmax [1, 8] was 28.9 ng/mL and the half-life [1, 8] was 14 h. It also gave a concentration at 8 h [1, 8] of 4.62 ng/mL, a Tmax ([1]; human, plasma, 15 mg, Day 10, median, read-out: Tmax) of 1.75 h and a Tmax ([1]; human, plasma, 25 mg, 3, 8, 15 and 25 mg, both Day 1 and Day 10 (range 1.0 to 6.0), read-out: median Tmax) of 1.75 h. For the same compound, the Cmax [1, 9] was 28 ng/mL, the concentration at 8 h [1, 9] was 7.35 ng/mL and the Tmax ([1]; human, plasma, 25 mg, Day 1, median, read-out: Tmax) was 1.25 h. The Cmax [1, 10] was 36.9 ng/mL, the half-life [1, 10] was 15.9 h and the concentration at 8 h [1, 10] was 7.39 ng/mL. It also gave a Tmax ([1]; human, plasma, 25 mg, Day 10, median, read-out: Tmax) of 1.5 h, a Vd/F [1, 4] of 862 L and a Vd/F [1, 6] of 616 L. The Vd/F [1, 8] was 1700 L, the Vd/F [1, 10] was 2480 L and the half-life at 10 days ([1]; human, plasma, po, Day 10, 3 to 25 mg, read-out: terminal half-life following multiple oral dosing, range) was 8 to 16 h. The “steady state expected to be achieved by” value ([1]; once daily dosing, from half-life) was at most 4 days, the “LS mean difference vs placebo in change from baseline, average MWT sleep latency” value (“LS mean difference vs placebo in change” for short) ([2]; 5 mg) was 8.07 min and 8 min and the “Change from Day −1 in Average Sleep Latency on the MWT, LSM” value ([2]; 5 mg) was 6.35 min. For the same compound, the “Change from Day −1 in Average Sleep Latency on the MWT, LSM difference vs placebo” value (from here on “Change … LSM difference vs placebo”) ([2]; 5 mg) was 8.07 min, the “Average Sleep Latency on the MWT, Change from Day −1, Mean (SD)” value ([2]; 5 mg) was 6.35 (10.348) minutes and the “Average Sleep Latency on the MWT, Change from Day −1, Median” value ([2]; 5 mg) was 4.75 min. For the same compound, the “Average Sleep Latency on the MWT, Dosing Day, Mean (SD)” value ([2]; 5 mg) was 28.96 (9.196) minutes, the “Average Sleep Latency on the MWT, Dosing Day, Median” value ([2]; 5 mg) was 29.13 min and the “observed mean MWT score over 8-hour period post-dose” value ([2]; 12 mg) was at least 30 min. The “LS mean difference vs placebo in change” value ([2]; 12 mg) was 11.05 min and 11 min, the “Change from Day −1 in Average Sleep Latency on the MWT, LSM” value ([2]; 12 mg) was 9.33 min and the “Change … LSM difference vs placebo” value ([2]; 12 mg) was 11.05 min. For the same compound, the “Average Sleep Latency on the MWT, Change from Day −1, Mean (SD)” value ([2]; 12 mg) was 9.33 (11.468) minutes, the “Average Sleep Latency on the MWT, Change from Day −1, Median” value ([2]; 12 mg) was 7.00 min and the “Average Sleep Latency on the MWT, Dosing Day, Mean (SD)” value ([2]; 12 mg) was 31.94 (7.814) minutes. For the same compound, the “Average Sleep Latency on the MWT, Dosing Day, Median” value ([2]; 12 mg) was 32.69 min, the “observed mean MWT score over 8-hour period post-dose” value ([2]; 25 mg) was at least 30 min and the “LS mean difference vs placebo in change” value ([2]; 25 mg) was 17.67 min and 18 min. The “Change from Day −1 in Average Sleep Latency on the MWT, LSM” value ([2]; 25 mg) was 15.95 min, the “Change … LSM difference vs placebo” value ([2]; 25 mg) was 17.67 min and the “Average Sleep Latency on the MWT, Change from Day −1, Mean (SD)” value ([2]; 25 mg) was 15.95 (10.946) minutes. For the same compound, the “Average Sleep Latency on the MWT, Change from Day −1, Median” value ([2]; 25 mg) was 15.31 min, the “Average Sleep Latency on the MWT, Dosing Day, Mean (SD)” value ([2]; 25 mg) was 38.56 (2.821) minutes and the “Average Sleep Latency on the MWT, Dosing Day, Median” value ([2]; 25 mg) was 40.00 min.
